What follows are molecules tested against T1, Peroxisome proliferator-activated receptor gamma (Homo sapiens, UniProt P37231) (assay: Lanthascreen Competitive Binding Assay: The assay was performed according to manufacturer protocol. A mixture of […], 5 nM Tb-GST-antibody, 5 nM Fluormone Pan-PPAR Green, and serial dilutions of the experimental compound, beginning at 10 μM downwards, was added to wells of black 384-well low-volume plates (Greiner) to a total volume of 18 μL. All dilutions were made in TR-FRET assay buffer C. DMSO at 2% final concentration was used as a no-ligand control. Experiment was performed in triplicate, and incubated for 2 hours in the dark prior to assay read in Perkin Elmer ViewLux ultra HTS microplate reader. FRET signal was measured by excitation at 340 nm and emission at 520 nm for fluorescein and 490 nm for terbium. Fold change over DMSO was calculated using GraphPad Prism Software (La Jolla, Calif.) by calculating 520 nm/490 nm ratio. Graphs were plotted as fold change of FRET signal for compound treatment over DMSO-only control.).
T1 sequence (P37231 whole entry): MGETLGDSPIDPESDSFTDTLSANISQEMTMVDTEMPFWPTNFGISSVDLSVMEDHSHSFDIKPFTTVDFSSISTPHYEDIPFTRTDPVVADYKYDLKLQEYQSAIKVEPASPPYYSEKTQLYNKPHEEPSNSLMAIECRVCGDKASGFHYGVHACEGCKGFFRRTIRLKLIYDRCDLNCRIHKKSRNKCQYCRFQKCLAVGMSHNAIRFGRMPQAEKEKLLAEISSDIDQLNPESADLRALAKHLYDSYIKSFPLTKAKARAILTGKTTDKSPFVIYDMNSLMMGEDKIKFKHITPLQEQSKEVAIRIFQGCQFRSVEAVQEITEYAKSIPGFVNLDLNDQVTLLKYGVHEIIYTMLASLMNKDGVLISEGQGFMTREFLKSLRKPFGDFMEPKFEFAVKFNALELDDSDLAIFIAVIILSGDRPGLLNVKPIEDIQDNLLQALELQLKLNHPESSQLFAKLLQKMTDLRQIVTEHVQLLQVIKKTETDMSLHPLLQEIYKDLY

Going from `Cc1c(C)n(Cc2ccc(-c3ccccc3C(=O)O)cc2)c2ccc(C(=O)N[C@@H](C)C3CCN(C(=O)NCc4ccccc4)CC3)cc12` to `Cc1c(C)n(Cc2ccc(-c3ccccc3C(=O)O)cc2)c2ccc(C(=O)N[C@H]3CCN(C(=O)OCc4ccccc4)C3)cc12`, the IC50 falls from 805 nM to 536 nM (1.5-fold).

First: Cc1c(C)n(Cc2ccc(-c3ccccc3C(=O)O)cc2)c2ccc(C(=O)N[C@@H](C)c3ccc(OC(C)C)cc3)cc12
Second: Cc1c(C)n(Cc2ccc(-c3ccccc3C(=O)O)cc2)c2ccc(C(=O)N[C@@H](C)c3cccc(OC(C)C)c3)cc12
The IC50 of the first is 1.8-fold higher: 34 nM for the first, 19 nM for the second.

`Cc1c(C)n(Cc2ccc(-c3cccnc3)cc2)c2ccc(C(=O)N[C@@H](C)c3ccc([N+](=O)[O-])cc3)cc12` and `Cc1cn(Cc2ccc(-c3ccccc3C(=O)O)cc2)c2ccc(C(=O)N[C@@H](C)c3ccc([N+](=O)[O-])cc3)cc12` are within 1.5-fold of each other in IC50: 150 nM for the first, 126 nM for the second.

First: Cc1c(C)n(Cc2ccc(-c3ccccc3C(=O)O)cc2)c2ccc(C(=O)N[C@@H](C)c3ccc(OC(C)(C)C)cc3)cc12
Second: Cc1c(C)n(Cc2ccc(-c3ccccc3C(=O)O)cc2)c2ccc(C(=O)N[C@@H](C)c3ccc(Cl)c(C(F)(F)F)c3)cc12
The IC50 of the first is 30-fold higher: 449 nM for the first, 15 nM for the second.

`CCC(NC(=O)c1ccc2c(c1)c(C)cn2Cc1ccc(-c2ccccc2C(=O)O)cc1)c1ccccc1` (stereo unspecified) and `CCC(NC(=O)c1ccc2c(c1)cc(C)n2Cc1ccc(-c2ccccc2C(=O)O)cc1)c1ccccc1` (stereo unspecified) are the same in IC50: 2 nM for the first, 2 nM for the second.

First: CCC(NC(=O)c1ccc2c(c1)c(C)c(C)n2Cc1ccc(-c2ccccc2C#N)cc1)c1ccccc1 (stereo unspecified)
Second: CC[C@H](NC(=O)c1ccc2c(c1)c(C)c(C)n2Cc1ccccc1-c1ccc(C(=O)O)cc1)c1ccccc1
The IC50 of the first is lower: 0.54 nM for the first, over 1000 nM for the second.

Going from `Cc1c(C)n(Cc2ccc(-c3ccccc3C(=O)O)cc2)c2ccc(C(=O)NCc3ccc(F)c(F)c3)cc12` to `CC[C@@H](NC(=O)c1ccc2c(c1)c(C)c(C)n2Cc1ccccc1-c1ccc(C(=O)O)cc1)c1ccccc1`, the IC50 rises from 31 nM to 80 nM (2.6-fold).

First: CC[C@@H](NC(=O)c1ccc2c(c1)c(C)c(C)n2Cc1ccccc1-c1cccc(C(=O)O)c1)c1ccccc1
Second: CC[C@H](NC(=O)c1ccc2c(c1)c(C)c(C)n2Cc1ccccc1-c1cccc(C(=O)O)c1)c1ccccc1
The IC50 of the first is 4-fold lower: 20 nM for the first, 80 nM for the second. The first is the more potent here.

Source: ChEMBL document CHEMBL3638687, “N-biphenylmethylindole modulators of PPARG” (2015)
